Data from doi:10.1101/704981v1 (biorxiv, 2019).

Target: EcThrRS (Escherichia coli, UniProt P0A8M3)
Assay: tRNA aminoacylation assay, initial rates, dose-response fit
Assay type: biochemical

Chain of EcThrRS (P0A8M3 whole entry): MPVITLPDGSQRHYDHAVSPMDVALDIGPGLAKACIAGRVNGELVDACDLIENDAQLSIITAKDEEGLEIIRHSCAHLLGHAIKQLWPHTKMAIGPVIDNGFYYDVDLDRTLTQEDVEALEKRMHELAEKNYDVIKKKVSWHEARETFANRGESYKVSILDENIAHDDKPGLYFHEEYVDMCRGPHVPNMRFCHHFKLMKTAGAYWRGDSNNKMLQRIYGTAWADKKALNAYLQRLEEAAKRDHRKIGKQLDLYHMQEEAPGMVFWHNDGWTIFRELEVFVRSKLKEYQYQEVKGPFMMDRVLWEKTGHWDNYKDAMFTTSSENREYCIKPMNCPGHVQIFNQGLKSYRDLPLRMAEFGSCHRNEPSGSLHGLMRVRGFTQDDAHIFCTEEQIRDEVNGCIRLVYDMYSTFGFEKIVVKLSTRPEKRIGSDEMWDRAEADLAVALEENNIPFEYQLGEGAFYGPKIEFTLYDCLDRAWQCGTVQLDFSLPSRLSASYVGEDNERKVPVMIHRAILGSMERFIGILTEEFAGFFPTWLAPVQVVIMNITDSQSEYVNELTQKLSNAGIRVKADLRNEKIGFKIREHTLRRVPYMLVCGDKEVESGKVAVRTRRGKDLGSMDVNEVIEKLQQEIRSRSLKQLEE

IC50: 0.092 ± 0.021 µM
Compound: O=C(N[C@@H]1C(=O)O[C@@H]1Cc1ccc([N+](=O)[O-])cc1)c1cccc(O)c1O [compound 1, obafluorin]
